We go through one substance from US20030129255A1, “Colloidal silver suspension for treating skin problems in tropical and decorative fish” (priority 2002, published 2003).

The series deals with nitrifying bacteria. On the procedure:
In accordance with the present invention, a method of treating skin problems in fish comprises adding a teaspoon (5 ml) of a suspension of colloidal silver in which the concentration of silver ranges between 6 ppm and 12 ppm (parts per million) to 10 gallons of water in an aquarium every other day and then changing 50% of the water once a week, so that the water to which the fish to be treated are exposed has a silver concentration initially in the range of 0.77 ppb to 1.5 ppb (parts per billion).

As to colloidal silver, the “survival of nitrifying bacteria” value is given as “some nitrifying bacteria can survive this treatment”.
